Assay results taken from ChEMBL document CHEMBL4507275, “Data for DCP probe BI-2545” (2021).

How the values were obtained:
[1] = biological target: Cyclin-dependent kinase 19 (Homo sapiens) (UniProt Q9BWU1); details: Compound concentration 1000.0 nM
[2] = biological target: Tyrosine-protein kinase JAK1 (Homo sapiens) (UniProt P23458); details: Compound concentration 1000.0 nM
[3] = biological target: Ephrin type-A receptor 3 (Homo sapiens) (UniProt P29320); details: Compound concentration 1000.0 nM
[4] = biological target: Serine/threonine-protein kinase D3 (Homo sapiens) (UniProt O94806); details: Compound concentration 1000.0 nM
[5] = biological target: Serine/threonine-protein kinase Nek7 (Homo sapiens) (UniProt Q8TDX7); details: Compound concentration 1000.0 nM
[6] = biological target: cGMP-dependent protein kinase 2 (Homo sapiens) (UniProt Q13237); details: Compound concentration 1000.0 nM
[7] = system: Hepatocyte growth factor receptor (Homo sapiens), P08581 [M1250T]; details: Compound concentration 1000.0 nM
[8] = biological target: Serine/threonine-protein kinase PLK4 (Homo sapiens) (UniProt O00444); details: Compound concentration 1000.0 nM
[9] = system: Tyrosine-protein kinase ABL1 (Homo sapiens), P00519 [H396P]; details: Compound concentration 1000.0 nM
[10] = system: Serine/threonine-protein kinase B-raf (Homo sapiens), P15056 [V600E]; details: Compound concentration 1000.0 nM
[11] = biological target: Non-receptor tyrosine-protein kinase TNK1 (Homo sapiens) (UniProt Q13470); details: Compound concentration 1000.0 nM
[12] = biological target: D(1B) dopamine receptor (Homo sapiens) (UniProt P21918); details: Compound concentration 10.0 uM
[13] = system: Epidermal growth factor receptor (Homo sapiens), P00533 [UNDEFINED MUTATION]; details: Compound concentration 1000.0 nM
[14] = biological target: Phosphatidylinositol 4,5-bisphosphate 3-kinase catalytic subunit delta isoform (Homo sapiens) (UniProt O00329); details: Compound concentration 1000.0 nM
[15] = biological target: Ribosomal protein S6 kinase alpha-2 (Homo sapiens) (UniProt Q15349); details: Compound concentration 1000.0 nM
[16] = biological target: Serine/threonine-protein kinase WNK1 (Homo sapiens) (UniProt Q9H4A3); details: Compound concentration 1000.0 nM
[17] = biological target: G protein-coupled receptor kinase 4 (Homo sapiens) (UniProt P32298); details: Compound concentration 1000.0 nM
[18] = biological target: Mitogen-activated protein kinase kinase kinase 20 (Homo sapiens) (UniProt Q9NYL2); details: Compound concentration 1000.0 nM
[19] = biological target: Phosphatidylinositol 4-kinase beta (Homo sapiens) (UniProt Q9UBF8); details: Compound concentration 1000.0 nM
[20] = biological target: Proto-oncogene tyrosine-protein kinase ROS (Homo sapiens) (UniProt P08922); details: Compound concentration 1000.0 nM
[21] = biological target: Protein kinase C delta type (Homo sapiens) (UniProt Q05655); details: Compound concentration 1000.0 nM
[22] = biological target: Receptor-interacting serine/threonine-protein kinase 1 (Homo sapiens) (UniProt Q13546); details: Compound concentration 1000.0 nM
[23] = biological target: Rhodopsin kinase GRK7 (Homo sapiens) (UniProt Q8WTQ7); details: Compound concentration 1000.0 nM
[24] = biological target: Non-receptor tyrosine-protein kinase TYK2 (Homo sapiens) (UniProt P29597); details: Compound concentration 1000.0 nM
[25] = biological target: Homeodomain-interacting protein kinase 2 (Homo sapiens) (UniProt Q9H2X6); details: Compound concentration 1000.0 nM
[26] = system: Phosphatidylinositol 4,5-bisphosphate 3-kinase catalytic subunit alpha isoform (Homo sapiens), P42336 [E545K]; details: Compound concentration 1000.0 nM
[27] = biological target: Homeodomain-interacting protein kinase 3 (Homo sapiens) (UniProt Q9H422); details: Compound concentration 1000.0 nM
[28] = biological target: Tyrosine-protein kinase JAK3 (Homo sapiens) (UniProt P52333); details: Compound concentration 1000.0 nM
[29] = biological target: Testis-specific serine/threonine-protein kinase 1 (Homo sapiens) (UniProt Q9BXA7); details: Compound concentration 1000.0 nM
[30] = system: Tyrosine-protein kinase ABL1 (Homo sapiens), P00519 [F317L]; details: Compound concentration 1000.0 nM
[31] = biological target: Inhibitor of nuclear factor kappa-B kinase subunit epsilon (Homo sapiens) (UniProt Q14164); details: Compound concentration 1000.0 nM
[32] = biological target: Tyrosine-protein kinase Fgr (Homo sapiens) (UniProt P09769); details: Compound concentration 1000.0 nM
[33] = biological target: Serine/threonine-protein kinase Chk2 (Homo sapiens) (UniProt O96017); details: Compound concentration 1000.0 nM
[34] = biological target: Serine/threonine-protein kinase ULK3 (Homo sapiens) (UniProt Q6PHR2); details: Compound concentration 1000.0 nM
[35] = biological target: Tyrosine-protein kinase Srms (Homo sapiens) (UniProt Q9H3Y6); details: Compound concentration 1000.0 nM
[36] = biological target: Serine/threonine-protein kinase 26 (Homo sapiens) (UniProt Q9P289); details: Compound concentration 1000.0 nM
[37] = biological target: Ribosomal protein S6 kinase alpha-3 (Homo sapiens) (UniProt P51812); details: Compound concentration 1000.0 nM
[38] = biological target: Insulin receptor-related protein (Homo sapiens) (UniProt P14616); details: Compound concentration 1000.0 nM
[39] = biological target: Mitogen-activated protein kinase kinase kinase 15 (Homo sapiens) (UniProt Q6ZN16); details: Compound concentration 1000.0 nM
[40] = biological target: Phosphatidylinositol 4-phosphate 3-kinase C2 domain-containing subunit beta (Homo sapiens) (UniProt O00750); details: Compound concentration 1000.0 nM
[41] = biological target: Cyclin-dependent kinase 4 (Homo sapiens) (UniProt P11802); details: Compound concentration 1000.0 nM
[42] = biological target: Proto-oncogene tyrosine-protein kinase Src (Homo sapiens) (UniProt P12931); details: Compound concentration 1000.0 nM
[43] = system: Epidermal growth factor receptor (Homo sapiens), P00533 [L861Q]; details: Compound concentration 1000.0 nM
[44] = biological target: Mitogen-activated protein kinase 12 (Homo sapiens) (UniProt P53778); details: Compound concentration 1000.0 nM

Sequence of Tyrosine-protein kinase JAK3 (Homo sapiens) (P52333 whole entry): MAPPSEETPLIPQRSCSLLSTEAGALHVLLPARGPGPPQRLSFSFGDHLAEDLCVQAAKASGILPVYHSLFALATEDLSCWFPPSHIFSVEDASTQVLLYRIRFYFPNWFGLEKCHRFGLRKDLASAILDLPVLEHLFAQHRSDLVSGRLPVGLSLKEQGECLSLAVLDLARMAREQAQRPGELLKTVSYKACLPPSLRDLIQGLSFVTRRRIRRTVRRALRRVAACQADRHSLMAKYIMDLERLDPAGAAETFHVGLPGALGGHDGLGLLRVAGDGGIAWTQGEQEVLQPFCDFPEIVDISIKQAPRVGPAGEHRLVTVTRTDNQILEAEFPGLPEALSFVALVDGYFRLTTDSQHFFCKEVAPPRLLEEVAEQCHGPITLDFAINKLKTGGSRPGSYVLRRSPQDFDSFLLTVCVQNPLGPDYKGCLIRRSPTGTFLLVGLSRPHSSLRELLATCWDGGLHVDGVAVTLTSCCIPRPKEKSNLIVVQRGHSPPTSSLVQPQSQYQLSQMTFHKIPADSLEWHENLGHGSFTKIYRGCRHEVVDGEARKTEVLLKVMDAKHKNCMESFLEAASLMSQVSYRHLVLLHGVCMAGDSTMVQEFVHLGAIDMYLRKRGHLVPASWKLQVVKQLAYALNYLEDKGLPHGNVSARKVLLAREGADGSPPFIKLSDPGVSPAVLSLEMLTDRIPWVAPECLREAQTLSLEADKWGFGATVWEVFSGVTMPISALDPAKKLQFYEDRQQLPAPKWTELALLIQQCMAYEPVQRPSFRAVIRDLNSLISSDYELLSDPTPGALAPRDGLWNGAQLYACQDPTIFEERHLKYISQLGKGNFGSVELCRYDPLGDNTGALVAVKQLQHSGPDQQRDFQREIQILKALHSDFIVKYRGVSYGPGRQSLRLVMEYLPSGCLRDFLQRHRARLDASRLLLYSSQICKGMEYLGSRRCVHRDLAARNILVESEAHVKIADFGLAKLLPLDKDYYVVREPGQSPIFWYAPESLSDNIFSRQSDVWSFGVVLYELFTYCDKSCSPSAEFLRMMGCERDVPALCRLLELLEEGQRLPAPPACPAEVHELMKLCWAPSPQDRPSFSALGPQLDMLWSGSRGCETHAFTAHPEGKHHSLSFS
Sequence of Phosphatidylinositol 4,5-bisphosphate 3-kinase catalytic subunit alpha isoform (Homo sapiens), P42336 [E545K] (P42336 whole entry E545K, canonical isoform): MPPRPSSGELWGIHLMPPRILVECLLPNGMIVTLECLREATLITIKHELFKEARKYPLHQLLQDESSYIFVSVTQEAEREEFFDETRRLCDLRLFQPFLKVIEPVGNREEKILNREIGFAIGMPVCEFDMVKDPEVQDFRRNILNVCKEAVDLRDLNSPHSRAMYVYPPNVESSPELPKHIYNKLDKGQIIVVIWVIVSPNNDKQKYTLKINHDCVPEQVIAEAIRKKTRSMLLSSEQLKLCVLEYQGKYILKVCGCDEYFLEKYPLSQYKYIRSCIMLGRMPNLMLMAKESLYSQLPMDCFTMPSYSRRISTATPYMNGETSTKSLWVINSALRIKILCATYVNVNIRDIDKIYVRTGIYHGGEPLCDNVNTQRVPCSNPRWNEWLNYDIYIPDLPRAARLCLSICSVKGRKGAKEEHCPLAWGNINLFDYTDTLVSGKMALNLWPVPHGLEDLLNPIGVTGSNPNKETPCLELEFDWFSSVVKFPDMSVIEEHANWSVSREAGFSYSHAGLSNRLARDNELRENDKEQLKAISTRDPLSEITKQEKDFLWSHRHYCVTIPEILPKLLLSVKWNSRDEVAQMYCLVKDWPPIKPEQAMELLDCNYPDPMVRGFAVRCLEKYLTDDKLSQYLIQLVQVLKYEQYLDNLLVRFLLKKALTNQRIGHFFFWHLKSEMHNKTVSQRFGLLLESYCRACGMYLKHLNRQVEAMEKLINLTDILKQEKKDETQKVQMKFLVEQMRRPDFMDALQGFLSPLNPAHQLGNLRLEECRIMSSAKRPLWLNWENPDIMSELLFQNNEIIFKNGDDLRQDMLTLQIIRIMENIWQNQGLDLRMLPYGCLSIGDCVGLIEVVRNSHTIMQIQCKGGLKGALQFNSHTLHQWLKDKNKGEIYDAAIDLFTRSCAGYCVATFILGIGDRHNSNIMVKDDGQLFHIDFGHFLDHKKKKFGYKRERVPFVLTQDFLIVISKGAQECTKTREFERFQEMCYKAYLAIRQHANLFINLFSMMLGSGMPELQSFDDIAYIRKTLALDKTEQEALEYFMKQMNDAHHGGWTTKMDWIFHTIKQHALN
Sequence of cGMP-dependent protein kinase 2 (Homo sapiens) (Q13237 whole entry): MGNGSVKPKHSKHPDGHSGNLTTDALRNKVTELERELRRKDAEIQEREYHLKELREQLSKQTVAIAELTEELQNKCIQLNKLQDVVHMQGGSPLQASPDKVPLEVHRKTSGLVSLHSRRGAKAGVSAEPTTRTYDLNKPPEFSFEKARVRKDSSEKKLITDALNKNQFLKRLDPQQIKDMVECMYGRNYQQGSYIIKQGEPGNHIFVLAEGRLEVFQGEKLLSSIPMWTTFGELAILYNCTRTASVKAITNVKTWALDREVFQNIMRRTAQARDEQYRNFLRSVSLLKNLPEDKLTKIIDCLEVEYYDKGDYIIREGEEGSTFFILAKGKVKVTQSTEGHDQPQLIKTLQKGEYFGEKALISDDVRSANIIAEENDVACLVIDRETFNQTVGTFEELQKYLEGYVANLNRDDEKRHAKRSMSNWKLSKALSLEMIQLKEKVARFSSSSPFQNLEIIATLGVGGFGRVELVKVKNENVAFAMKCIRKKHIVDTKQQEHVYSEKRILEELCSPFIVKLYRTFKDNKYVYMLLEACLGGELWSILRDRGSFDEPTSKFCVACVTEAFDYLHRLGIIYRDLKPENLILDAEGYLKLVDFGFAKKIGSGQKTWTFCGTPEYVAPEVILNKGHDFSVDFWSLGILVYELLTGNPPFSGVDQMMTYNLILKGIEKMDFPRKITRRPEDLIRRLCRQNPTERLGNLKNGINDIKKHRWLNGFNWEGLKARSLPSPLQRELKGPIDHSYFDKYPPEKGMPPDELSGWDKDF
Sequence of Ribosomal protein S6 kinase alpha-3 (Homo sapiens) (P51812 whole entry): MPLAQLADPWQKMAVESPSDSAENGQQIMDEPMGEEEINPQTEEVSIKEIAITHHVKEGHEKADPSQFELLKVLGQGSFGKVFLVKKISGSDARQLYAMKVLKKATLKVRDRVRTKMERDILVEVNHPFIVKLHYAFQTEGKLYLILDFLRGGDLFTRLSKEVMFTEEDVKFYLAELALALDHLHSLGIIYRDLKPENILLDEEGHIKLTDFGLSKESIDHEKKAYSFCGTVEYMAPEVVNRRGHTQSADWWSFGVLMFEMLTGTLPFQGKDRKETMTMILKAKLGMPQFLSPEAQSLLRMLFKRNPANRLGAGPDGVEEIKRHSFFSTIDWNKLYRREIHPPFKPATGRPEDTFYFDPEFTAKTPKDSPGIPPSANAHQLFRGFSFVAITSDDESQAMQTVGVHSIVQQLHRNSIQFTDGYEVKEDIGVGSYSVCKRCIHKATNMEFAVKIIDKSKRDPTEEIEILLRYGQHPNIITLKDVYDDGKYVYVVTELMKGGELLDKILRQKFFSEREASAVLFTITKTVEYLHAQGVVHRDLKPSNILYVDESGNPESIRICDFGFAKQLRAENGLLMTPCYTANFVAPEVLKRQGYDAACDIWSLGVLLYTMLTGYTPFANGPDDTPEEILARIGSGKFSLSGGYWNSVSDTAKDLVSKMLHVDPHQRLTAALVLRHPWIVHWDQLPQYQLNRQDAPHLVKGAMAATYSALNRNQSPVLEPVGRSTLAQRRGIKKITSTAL
Sequence of Serine/threonine-protein kinase PLK4 (Homo sapiens) (O00444 whole entry): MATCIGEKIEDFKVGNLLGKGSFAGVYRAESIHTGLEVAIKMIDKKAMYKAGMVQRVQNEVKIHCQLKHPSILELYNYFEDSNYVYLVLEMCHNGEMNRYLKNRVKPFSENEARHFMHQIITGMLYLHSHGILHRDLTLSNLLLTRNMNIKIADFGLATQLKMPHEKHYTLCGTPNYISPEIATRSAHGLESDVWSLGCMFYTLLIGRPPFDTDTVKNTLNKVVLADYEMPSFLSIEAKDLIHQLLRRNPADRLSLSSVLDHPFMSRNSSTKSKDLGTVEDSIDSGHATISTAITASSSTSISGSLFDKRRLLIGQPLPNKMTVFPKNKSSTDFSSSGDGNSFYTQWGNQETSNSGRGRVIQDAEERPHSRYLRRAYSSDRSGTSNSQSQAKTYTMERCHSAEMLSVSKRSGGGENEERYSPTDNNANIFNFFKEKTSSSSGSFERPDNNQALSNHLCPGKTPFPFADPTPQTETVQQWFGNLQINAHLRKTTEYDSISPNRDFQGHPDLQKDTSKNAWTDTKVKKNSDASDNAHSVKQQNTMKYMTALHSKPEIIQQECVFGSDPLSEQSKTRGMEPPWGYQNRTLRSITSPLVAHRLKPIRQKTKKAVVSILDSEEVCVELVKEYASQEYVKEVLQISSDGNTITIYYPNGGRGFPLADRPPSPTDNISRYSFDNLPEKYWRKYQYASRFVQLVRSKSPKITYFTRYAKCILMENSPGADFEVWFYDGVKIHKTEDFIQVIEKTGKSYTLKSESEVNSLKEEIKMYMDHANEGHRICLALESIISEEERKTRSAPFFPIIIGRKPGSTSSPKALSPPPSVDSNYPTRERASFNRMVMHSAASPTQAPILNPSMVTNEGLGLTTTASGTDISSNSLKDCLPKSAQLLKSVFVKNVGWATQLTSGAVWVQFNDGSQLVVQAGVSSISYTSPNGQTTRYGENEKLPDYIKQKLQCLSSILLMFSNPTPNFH
Sequence of Cyclin-dependent kinase 4 (Homo sapiens) (P11802 whole entry): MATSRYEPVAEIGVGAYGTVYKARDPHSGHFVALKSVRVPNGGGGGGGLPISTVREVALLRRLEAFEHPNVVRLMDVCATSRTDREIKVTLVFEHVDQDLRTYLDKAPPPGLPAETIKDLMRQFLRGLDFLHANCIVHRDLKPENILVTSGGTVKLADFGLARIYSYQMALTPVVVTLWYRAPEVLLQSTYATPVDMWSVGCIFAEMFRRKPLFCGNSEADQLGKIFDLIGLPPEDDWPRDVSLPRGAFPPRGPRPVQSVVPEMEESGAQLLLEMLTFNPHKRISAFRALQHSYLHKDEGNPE

Cc1nccc(COC(=O)N2C[C@@H]3[C@@H](CNC(=O)c4ccc5[nH]nnc5c4)[C@@H]3C2)n1 [BI 3017]
inactive: residual activity [1] 97% | residual activity [2] 85% | residual activity [3] 93% | residual activity [4] 100% | residual activity [5] 100% | residual activity [6] 100% | residual activity [7] 100% | residual activity [8] 83% | residual activity [9] 85% | residual activity [10] 100% | residual activity [11] 66% | inhibition [12] 16.4% | residual activity [13] 87% | residual activity [14] 85% | residual activity [15] 100% | residual activity [16] 86% | residual activity [17] 100% | residual activity [18] 90% | residual activity [19] 97% | residual activity [20] 100% | residual activity [21] 95% | residual activity [22] 86% | residual activity [23] 88% | residual activity [24] 100% | residual activity [25] 81% | residual activity [26] 86% | residual activity [27] 76% | residual activity [28] 96% | residual activity [29] 91% | residual activity [30] 90% | residual activity [31] 100% | residual activity [32] 100% | residual activity [33] 100% | residual activity [34] 100% | residual activity [35] 87% | residual activity [36] 77% | residual activity [37] 100% | residual activity [38] 100% | residual activity [39] 95% | residual activity [40] 97% | residual activity [41] 78% | residual activity [42] 100% | residual activity [43] 100% | residual activity [44] 79%

O=C(NC[C@@H]1[C@H]2CN(C(=O)OCc3cc(C(F)(F)F)cc(C(F)(F)F)c3)C[C@@H]12)c1ccc2[nH]nnc2c1 [BI 2545]
inactive: residual activity [1] 89% | residual activity [2] 100% | residual activity [3] 100% | residual activity [4] 83% | residual activity [5] 83% | residual activity [6] 82% | residual activity [7] 100% | residual activity [8] 82% | residual activity [9] 91% | residual activity [10] 100% | residual activity [11] 94% | inhibition [12] 21.6% | residual activity [13] 100% | residual activity [14] 75% | residual activity [15] 100% | residual activity [16] 90% | residual activity [17] 100% | residual activity [18] 86% | residual activity [19] 100% | residual activity [20] 100% | residual activity [21] 93% | residual activity [22] 89% | residual activity [23] 100% | residual activity [24] 100% | residual activity [25] 100% | residual activity [26] 100% | residual activity [27] 89% | residual activity [28] 69% | residual activity [29] 100% | residual activity [30] 88% | residual activity [31] 100% | residual activity [32] 88% | residual activity [33] 86% | residual activity [34] 99% | residual activity [35] 83% | residual activity [36] 76% | residual activity [37] 94% | residual activity [38] 83% | residual activity [39] 53% | residual activity [40] 65% | residual activity [41] 97% | residual activity [42] 100% | residual activity [43] 100% | residual activity [44] 100%
